Assay results reported in US20090011405A1 (priority 2003, published 2009).

Key:
[1] = test system: JUN1 and JUNZ (c-Jun self dimerization); assay: Reverse two-hybrid assay with JUN1 and JUNZ, background and plating efficiency; format: cell-based, yeast
Experimental: A reverse two-hybrid assay was performed using the interacting proteins JUN1 (amino acids 187-334, inclusive, of the JUN protein) and JUNZ (amino acids 259-309, inclusive, of the JUN protein) both of which comprise the leucine zipper domain of c-Jun (ie the region necessary for self dimerization). As a positive control FOSZ (amino acids 111-195, inclusive, of the FOS protein), a known blocker of c-Jun self dimerization was used. As a negative control, the expression vector alone was used. Gene constructs were transformed into cells comprising the negative selectable markers URA3 and CYH2.
Cells comprising only the interacting partners or the interacting partners and FOSZ (19F) or the interacting partners and the negative control (19) were grown in various concentrations of uracil (from 10 mg/L to 0 mg/L). All cells were also plated in the presence of 0.02% galactose; 0.04% FOA; and 5 μg/ml cycloheximide.
Background was determined by estimating the number of cells (colonies) that expressed only JUN1 and JUNZ and were still capable of growing in the presence of 5-FOA. Plating efficiency was determined by estimating the number of cells out of the 500 plated that expressed JUN1, JUNZ and FOSZ that were capable of growing in each set of conditions.
Using the same expression constructs and cells as in Example 2 cells were plated in the presence of increasing concentrations of 5-FOA and uracil. […]

[2] = target: JUN1 (amino acids 187-334, inclusive, of the JUN protein); assay: cell-based or functional assay
[3] = target: JUNZ (amino acids 259-309, inclusive, of the JUN protein); assay: cell-based or functional assay

C[C@@H]1C[C@@H]([C@H](O)CC2CC(=O)NC(=O)C2)C(=O)[C@@H](C)C1 [cycloheximide] was tested, and the “background (effect of increasing cycloheximide concentration)” value ([1]; JUN1/JUNZ cells, 0.2 or 0.5 mg/L uracil, 0.06% 5-FOA, 10000 or 100000 cells plated) was “lower levels of background”.

With O=c1cc[nH]c(=O)[nH]1 [uracil] the “background (effect of increased uracil concentration)” value ([1]; JUN1/JUNZ cells, uracil 10 to 0 mg/L, 0.02% galactose, 0.04% FOA, 5 μg/ml cycloheximide) was “increased background”, the “plating efficiency (effect of increased uracil concentration)” value ([1]; JUN1/JUNZ/FOSZ cells, uracil 10 to 0 mg/L, 0.02% galactose, 0.04% FOA, 5 μg/ml cycloheximide) was “reduced plating efficiency” and the background ([1]; cells expressing only JUN1 and JUNZ, 0.25 and 0.5 mg/L uracil, 0.02% galactose, 0.04% FOA, 5 μg/ml cycloheximide) was 0%.

Work on “FOSZ (amino acids 111-195, inclusive, of the FOS protein) (from UniProt P01100 111-195)” yielded a plating efficiency (cells expressing JUN1, JUNZ and FOSZ that grow under counter-selection) [2] greater than 40% and a plating efficiency (cells expressing JUN1, JUNZ and FOSZ that grow under counter-selection) [3] greater than 40%.

“JUN1 (amino acids 187-334, inclusive, of the JUN protein)” was tested, and the background (colonies expressing only JUN1 and JUNZ that still grow in the presence of 5-FOA) [3] was 0%.

B1: FOSZ: amino acids 111-195, inclusive, of the FOS protein, a known blocker of c-Jun self dimerization (protein)
chain: VVKTMTGGRAQSIGRRGKVEQLSPEEEEKRRIRRERNKMAAAKCRNRRRELTDTLQAETDQLEDEKSALQTEIANLLKEKEKLEF
In the case of B1, the plating efficiency ([1]; cells expressing JUN1, JUNZ and FOSZ (19F), 500 plated, low concentrations of uracil, 0.02% galactose, 0.04% FOA, 5 μg/ml cycloheximide) is reported as “greater than 40%”.
